Test systems include U251 CNS; MDA-MB-231 breast; OVCAR-3 ovarian; MALME-3M melanoma; HCC-2998 colon; NCI-H226 lung; TK-10 renal; A549 NSCLC; 786-0 renal; NCI/ADR-RES ovarian.
Common to all, as to assay: NCI-60 cell line screen, 48 h

“And” between values parts separate entries of the source, which are not always exact repeats. Equal entries are not always repeated.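 How tested: cells in 96-well plates exposed to compound for 48 hours at five concentrations. Abbreviation: GI50, concentration required for 50% inhibition of growth. Definition used: TGI = concentration required for complete inhibition of growth.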 Where a SMILES comes first, the peptide text is derived from it. Bridges are numbered along the chain shown (N, C = ends).

`O=c1[nH][nH]c(=O)c2c(O)c(-c3ccccc3)ncc12`: the GI50 in the assay on U251 CNS is 31.4 µM and 48.8 µM; in the assay with MDA-MB-231 breast it was 37.7 µM and 113 µM; in the assay with OVCAR-3 ovarian, 27.6 µM and 84 µM; in the assay on MALME-3M melanoma, 30.1 µM and 54.4 µM; with HCC-2998 colon it was 34.9 µM and 103 µM; in the assay with NCI-H226 lung it was 25.2 µM and 135 µM. In addition, the GI50 was 57 µM and 153 µM with TK-10 renal; 57.7 µM and 325 µM in the assay with A549 NSCLC; 19.4 µM and 26.7 µM with 786-0 renal; 36.7 µM and 73.2 µM with NCI/ADR-RES ovarian. Moreover, the TGI in the assay on U251 CNS was 79.8 µM and 405 µM; in the assay on MDA-MB-231 breast it was 385 µM; in the assay with OVCAR-3 ovarian, 84.2 µM and 468 µM; in the assay with MALME-3M melanoma it was 278 µM; in the assay with HCC-2998 colon it was 642 µM; with NCI-H226 lung, 52.6 µM and 463 µM. For the same molecule, the TGI in the assay with TK-10 renal is 462 µM; in the assay with A549 NSCLC it was 807 µM; with 786-0 renal, 42.1 µM and 90.4 µM; in the assay on NCI/ADR-RES ovarian, 586 µM.
`C#Cc1cccc(Nc2ncnc3ccc(-c4cnc(N)nc4)cc23)c1`: the GI50 in the assay with U251 CNS was 3.18 µM; in the assay with MDA-MB-231 breast, 2.05 µM; in the assay on OVCAR-3 ovarian it was 1.93 µM; in the assay on MALME-3M melanoma, 1.73 µM; with HCC-2998 colon, 5.14 µM; in the assay with NCI-H226 lung, 1.98 µM. For the same molecule, the GI50 was 0.286 µM with TK-10 renal, 2.02 µM in the assay on A549 NSCLC, 2.67 µM with 786-0 renal and 4.09 µM with NCI/ADR-RES ovarian. For the same molecule, the TGI with U251 CNS was 16.9 µM; in the assay on MDA-MB-231 breast, 11 µM; with OVCAR-3 ovarian, 10.5 µM; in the assay with MALME-3M melanoma, 12.7 µM; with HCC-2998 colon it was 23.4 µM; in the assay on NCI-H226 lung, 12.8 µM. In addition, the TGI worked out at 3.2 µM with TK-10 renal, 14.4 µM in the assay on A549 NSCLC, 14.8 µM with 786-0 renal and 36.4 µM with NCI/ADR-RES ovarian.
On to `COC1/C=C/OC2(C)Oc3c(C)c(O)c4c(O)c(c(/C=N/N(c5ccccc5)c5ccccc5)c(O)c4c3C2=O)NC(=O)C(C)=C/C=C/C(C)C(O)C(C)C(O)C(C)C(OC(C)=O)C1C` (stereo unspecified), for which the GI50 in the assay on U251 CNS is 1.2 µM; in the assay on MDA-MB-231 breast, 1.38 µM; in the assay with OVCAR-3 ovarian, 0.852 µM; in the assay with MALME-3M melanoma, 1.83 µM; with HCC-2998 colon, 1.71 µM; in the assay on NCI-H226 lung it was 4.23 µM. For the same molecule, the GI50 in the assay on TK-10 renal is 1.8 µM; in the assay on A549 NSCLC, 2.11 µM; in the assay on 786-0 renal, 1.63 µM; in the assay with NCI/ADR-RES ovarian it was 3.76 µM. The TGI with U251 CNS was determined as 3 µM; with MDA-MB-231 breast, 4.14 µM; in the assay with OVCAR-3 ovarian it was 1.7 µM; in the assay on MALME-3M melanoma, 9.36 µM; in the assay on HCC-2998 colon it was 6.16 µM; in the assay with NCI-H226 lung, 11.8 µM. For the same molecule, the TGI in the assay on TK-10 renal is 7.55 µM; with A549 NSCLC, 7.8 µM; in the assay on 786-0 renal it was 5.96 µM; with NCI/ADR-RES ovarian it was 12.6 µM.
In the case of `COc1ccc(-c2nsc3c2NC(=O)CC3c2cccc(F)c2)cc1` (stereo unspecified), the GI50 was 5.55 µM in the assay on U251 CNS; 6.34 µM in the assay with MDA-MB-231 breast; 3.32 µM in the assay with OVCAR-3 ovarian; 6.08 µM with MALME-3M melanoma; 7.18 µM in the assay with HCC-2998 colon; 6.74 µM with NCI-H226 lung. In addition, the GI50 in the assay with TK-10 renal was 5.26 µM; in the assay with A549 NSCLC, 5.16 µM; in the assay with 786-0 renal, 8.22 µM; with NCI/ADR-RES ovarian, 2.96 µM. Also, the TGI in the assay with U251 CNS was over 100 µM; in the assay with MDA-MB-231 breast, over 100 µM; with OVCAR-3 ovarian it was 12.3 µM; in the assay with MALME-3M melanoma, over 100 µM; in the assay with HCC-2998 colon, over 100 µM; with NCI-H226 lung it was over 100 µM. Also, the TGI was over 100 µM in the assay on TK-10 renal, over 100 µM in the assay on A549 NSCLC, over 100 µM in the assay with 786-0 renal and 16.7 µM in the assay with NCI/ADR-RES ovarian.
As for `O=C1/C=C/[C@@H](O)[C@@H]2C[C@@H](O)C[C@H]2/C=C/CCC[C@H](CCc2ccc(NC(=S)Nc3ccc4c(c3)C(=O)OC43c4ccc(O)cc4Oc4cc(O)ccc43)cc2)O1`, the GI50 is 0.47 µM with U251 CNS; 0.21 µM in the assay with MDA-MB-231 breast; 0.317 µM in the assay with OVCAR-3 ovarian; 2.26 µM with MALME-3M melanoma; 0.302 µM in the assay on HCC-2998 colon; 0.287 µM with NCI-H226 lung. Moreover, the GI50 with TK-10 renal was 0.608 µM; with A549 NSCLC it was 0.448 µM; in the assay on 786-0 renal, 0.262 µM; in the assay with NCI/ADR-RES ovarian, 0.407 µM. Besides, the TGI was over 100 µM with U251 CNS; 0.402 µM in the assay with MDA-MB-231 breast; 0.862 µM in the assay on OVCAR-3 ovarian; over 100 µM with MALME-3M melanoma; 0.783 µM with NCI-H226 lung; 12.6 µM in the assay on TK-10 renal. Moreover, the TGI with A549 NSCLC was over 100 µM; in the assay on 786-0 renal it was 0.771 µM; in the assay on NCI/ADR-RES ovarian, over 100 µM.
On to `CCC(C)C1NC(=O)C(CC(C)C)NC(=O)C(C(C)C)NC(=O)C2CSSCC(NC1=O)C(=O)N2` (stereo unspecified) (cyclo(CCVLI); disulfide 1-2; configuration not given here), for which the TGI was found to be 0.149 µM in the assay on U251 CNS; 0.233 µM with MDA-MB-231 breast; 0.395 µM in the assay with OVCAR-3 ovarian; 0.216 µM in the assay with HCC-2998 colon; 1.93 µM in the assay on TK-10 renal; 0.399 µM in the assay with A549 NSCLC. In addition, the TGI is 0.315 µM in the assay with 786-0 renal and over 100 µM in the assay with NCI/ADR-RES ovarian.
Take `COc1ccc2[nH]cc(C3(c4c[nH]c5ccc(OC)cc45)C(=O)Nc4ccc(Cl)cc43)c2c1`: the GI50 in the assay with U251 CNS is 2.88 µM; in the assay on MDA-MB-231 breast it was 2.08 µM; in the assay with OVCAR-3 ovarian it was 2.99 µM; in the assay with MALME-3M melanoma it was 5.02 µM; with HCC-2998 colon it was 3.26 µM; in the assay with NCI-H226 lung, 3.38 µM. Moreover, the GI50 in the assay with 786-0 renal is 4.43 µM; with NCI/ADR-RES ovarian, 9.98 µM. The TGI in the assay with U251 CNS stood at 13.4 µM; in the assay with MDA-MB-231 breast, 5.43 µM; with OVCAR-3 ovarian, 8.5 µM; with MALME-3M melanoma, 46.5 µM; with HCC-2998 colon, 11.4 µM; in the assay on NCI-H226 lung, 30 µM. Besides, the results for the TGI in the assay on 786-0 renal and with NCI/ADR-RES ovarian were 83.9 µM and over 100 µM, respectively.
With `N#Cc1ccc(O)c(C2=NCC(c3ccc(-c4ccccc4)cc3)O2)c1` (stereo unspecified), the GI50 with U251 CNS is 0.326 µM; in the assay on MDA-MB-231 breast, 0.823 µM; in the assay on OVCAR-3 ovarian, 0.368 µM; in the assay with MALME-3M melanoma, 1.71 µM; in the assay on HCC-2998 colon it was 0.628 µM; in the assay with NCI-H226 lung it was 0.589 µM. For the same molecule, the GI50 in the assay on A549 NSCLC was 0.418 µM; in the assay on 786-0 renal, 0.626 µM; in the assay on NCI/ADR-RES ovarian, 0.148 µM. Further, the TGI in the assay with U251 CNS stood at 11.6 µM; with MDA-MB-231 breast, 18.5 µM; in the assay on OVCAR-3 ovarian it was 11.7 µM; in the assay with MALME-3M melanoma, 14.3 µM; in the assay with HCC-2998 colon, 21.6 µM; in the assay on NCI-H226 lung, 12.7 µM. Further, the results for the TGI in the assay on A549 NSCLC, in the assay with 786-0 renal and in the assay on NCI/ADR-RES ovarian were 8.06 µM, 11.9 µM and 5.7 µM, respectively.

The values above are taken from PubChem BioAssay (NCI).
